Values quoted from earlier work, collected in PMC11439047 (Nature Communications, 2024).

System: P2X1 receptor
Settings: cited from earlier work

Question: With `O=C(O)c1cc(C(=O)O)c(C(=O)N(Cc2cccc(Oc3ccccc3)c2)[C@H]2CCCc3ccccc32)cc1C(=O)O` [A-317491] as the compound, how does the “activity for the P2X1 receptor” value read?
Answer: weak activity
